# Laboratory results: PubChem BioAssay (NCI)
#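 Cells were grown in 96-well plates and exposed to each compound for 48 hours at five concentrations; endpoints were interpolated linearly between bracketing concentrations, or set to the highest concentration if not reached. TGI is the concentration that stops growth completely.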
# Experiments:
# Experiment in all cases: NCI anticancer screen, dose series, 48 h
# SNB-19 CNS = test system: SNB-19 CNS
# MDA-N = test system: MDA-N
# MCF7 breast = test system: MCF7 breast
# SK-MEL-5 melanoma = test system: SK-MEL-5 melanoma
# 786-0 renal = test system: 786-0 renal
# NCI/ADR-RES ovarian = test system: NCI/ADR-RES ovarian
# A549 NSCLC = test system: A549 NSCLC
# MOLT-4 leukemia = test system: MOLT-4 leukemia
# UACC-257 melanoma = test system: UACC-257 melanoma
# SR leukemia = test system: SR leukemia
# NCI-H23 lung = test system: NCI-H23 lung
Structure (SMILES),TGI (SNB-19 CNS) [µM],TGI (MDA-N) [µM],TGI (MCF7 breast) [µM],TGI (SK-MEL-5 melanoma) [µM],TGI (786-0 renal) [µM],TGI (NCI/ADR-RES ovarian) [µM],TGI (A549 NSCLC) [µM],TGI (MOLT-4 leukemia) [µM],TGI (UACC-257 melanoma) [µM],TGI (SR leukemia) [µM],TGI (NCI-H23 lung) [µM]
CC[n+]1[b-](C(C)(C)C)n(/N=C/C(C)(C)C)[b-](C(C)(C)C)[n+]1CC,> 100,> 100,> 100,> 100,> 100,> 100,> 100,> 100,> 100,> 100,> 100
N/C(=N\S(=O)(=O)c1c(C(F)(F)F)cccc1C(F)(F)F)Nc1ccc(Cl)cc1,> 100,> 100,> 100,35.6,74.7,50.1,> 100,> 100,47.7,> 100,30.8
CC(=O)c1cccn1/C=C(\OC(=O)OC(C)(C)C)c1ccc[nH]1,> 100,> 100,> 100,> 100,> 100,> 100,> 100,> 100,> 100,> 100,> 100
COc1ccc(S(=O)(=O)N2C(=O)CCC2C(=O)NN)cc1 (stereo not given),> 100,> 100,> 100,> 100,> 100,> 100,> 100,> 100,> 100,> 100,> 100
NC(CC1=CS(=O)(=O)c2ccc(Cl)cc21)C(=O)O (stereo not given),> 100,> 100,> 100,> 100,> 100,> 100,> 100,> 100,> 100,> 100,> 100
C=C1c2cc3c(cc2CC12Cc1cc4c(cc1C2=O)CCC4)CCC3 (stereo not given),> 100,> 100,> 100,> 100,> 100,> 100,> 100,> 100,> 100,> 100,> 100
O=C1CC(C(O)(C(F)(F)F)C(F)(F)Cl)CCC1C(O)(C(F)(F)F)C(F)(F)Cl (stereo not given),> 10,> 10,> 10,> 10,> 10,> 10,> 10,> 10,> 10,> 10,> 10
NCCCN1CCN(CCCNc2ccc3nnn4c5ccccc5c(=O)c2c34)CC1,46.4,31,74.7,32.1,33.1,> 100,> 100,> 100,> 100,> 100,33.3
C[C@@H]1S[C@H](c2ccccc2F)N2Cc3ccccc3N=C12,> 100,48.4,> 100,32.5,63.1,99.3,> 100,46.7,85.7,36.9,> 100
COC(C)(C)[C@@H](O)[C@H]1C[C@H](C)[C@@]2(CC[C@]3(C)[C@@H]2CC[C@@H]2[C@@]4(C)CC[C@@H](OC(C)=O)C(C)(C)[C@@H]4C[C@@H](OC4OC(COC(C)=O)C(O)C(O)C4O)[C@]23C)O1 (stereo not given in full),21.3,17.9,8.92,15.1,18.7,22.5,15.3,10.7,20.9,5.25,25.8
